According to patent US12194050B2, “Thiadiazine derivatives” (RICHTER GEDEON NYRT., priority 2018, dated 2025):

molecular target: human α7 nAchR (Homo sapiens (Human), UniProt P36544); test: Human α7 nicotinic acetylcholine receptor [Ca2+]i assay (PAM, Ca2+ fluorometry); type: cell-based; details: Flp-In 293 cells expressing human α7 nAchR and human RIC-3; in presence of saturating agonist (mostly PNU-282987, 1 μM)
Protocol: Biological Activity Human α7 Nicotinic Acetylcholine Receptor [Ca^2+]i Assay
Cells: Flp-In 293 cells stably expressing human α7 nAchR and human RIC-3 (α7 cells, generated in house.)
Materials: 96-well plates coated with PDL (Falcon), culture medium, assay buffer, DMSO, FLIPR Calcium 5 kit (Molecular Devices), probenecid, agonist and PAM test compounds.
Brief Description of the Method (Ca^2+ Fluorometry)
α7 cells stably expressing human α7 nAchR were cultured in the medium detailed above, and were split twice a week. For the fluorometric measurements of cytosolic Ca^2+ ion concentration ([Ca^2+]i) cells were seeded in 96-well microplates at a density of 60000 cells/well and maintained overnight in a tissue culture incubator at 37° C. under an atmosphere of 95% air/5% CO2. The plating medium was identical with the culture medium. 50 μl of the growth medium was aspirated with a cell washer (BioTek Elx405UCVWS). Then 50 μl/well Calcium 5 kit diluted 2-fold in assay buffer was added manually using an 8-channel pipette. After an incubation period (20 minutes, 37° C.) 50 μl/well assay buffer containing vehicle (DMSO, 4% added) or reference α7 PAMs (4×of the final concentration) were added manually and the cells were incubated for an additional 10 minutes at 37° C. Baseline and agonist-evoked [Ca2+]i-changes were monitored with FlexStation II (Molecular Devices, Sunnyvale, Calif.), a plate reader fluorometer with integrated 8-channel fluid addition capability. Fluorescence measurements were carried out at 37° C. The dye was excited at 485 nm, emission was sampled at 525 nm at 1.4-s intervals. Baseline was recorded for 20 seconds followed by agonist stimulation. 50 μl 4× concentrated agonist solution was added to the cells using the pipettor of FlexStation II and fluorescence was monitored for an additional 40 seconds. Final DMSO concentration was 1% for all treatments. To achieve this, a series of DMSO stock solutions were prepared from all test compounds. These stocks were stored under 0° C. and were further diluted in assay buffer to obtain the desired final concentration immediately before the measurement. Agonist and PAM concentration-response studies were conducted in the presence of saturating concentrations of PAMs (mostly PNU-120596, 5 μM) and agonists (mostly PNU-282987, 1 μM), respectively. Results were expressed as ΔF/F values using SoftMax Pro software (Molecular Devices), where F was the resting fluorescence preceding agonist application and ΔF was the increase in fluorescence at a given time (ΔF=maximum fluorescence intensity values after stimulation minus average fluorescence intensity values before stimulation). In all experiments, all treatments were measured in multiple wells in parallel, and the mean ΔF/F values were used for analysis.

Sequence of human α7 nAchR (P36544 23-502): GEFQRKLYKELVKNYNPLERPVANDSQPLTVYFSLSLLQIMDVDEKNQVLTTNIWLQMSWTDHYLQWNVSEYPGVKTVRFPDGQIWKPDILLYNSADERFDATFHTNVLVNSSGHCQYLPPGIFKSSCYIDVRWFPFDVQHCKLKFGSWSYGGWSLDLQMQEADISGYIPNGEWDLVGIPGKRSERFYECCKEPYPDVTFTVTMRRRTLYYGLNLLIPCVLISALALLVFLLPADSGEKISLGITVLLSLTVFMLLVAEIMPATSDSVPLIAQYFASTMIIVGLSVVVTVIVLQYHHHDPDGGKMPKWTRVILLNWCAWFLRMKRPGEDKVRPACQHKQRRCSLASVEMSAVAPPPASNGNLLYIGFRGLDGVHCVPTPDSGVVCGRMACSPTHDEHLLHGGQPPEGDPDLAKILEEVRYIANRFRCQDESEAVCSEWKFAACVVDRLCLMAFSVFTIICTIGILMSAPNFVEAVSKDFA

SMILES	EC50
COc1ccc(C2=NS(=O)(=O)N(C)C(C(=O)Nc3ccc4c(c3)CCN(C)C4=O)=C2)cc1OC [Example 2]	1400 nM
COc1ccc(C2=NS(=O)(=O)N(C)C(C(=O)Nc3ccc(C(C)=O)cc3)=C2)cc1OC [Example 3]	690 nM
COc1ccc(C2=NS(=O)(=O)N(C)C(C(=O)Nc3cccc(C(C)=O)c3)=C2)cc1OC [Example 4]	980 nM
CCc1ccc(NC(=O)C2=CC(c3ccc(OC)c(OC)c3)=NS(=O)(=O)N2C)cc1 [Example 6]	1300 nM
COc1ccc(C2=NS(=O)(=O)N(C)C(C(=O)Nc3ccn4nccc4c3)=C2)cc1OC [Example 7]	2000 nM
COc1ccc(C2=NS(=O)(=O)N(C)C(C(=O)Nc3cccc(C#N)c3)=C2)cc1OC [Example 8]	1800 nM
COc1ccc(C2=NS(=O)(=O)N(C)C(C(=O)Nc3ccc4c(c3)OCO4)=C2)cc1OC [Example 9]	1600 nM
COc1cccc(NC(=O)C2=CC(c3ccc(OC)c(OC)c3)=NS(=O)(=O)N2C)c1 [Example 10]	670 nM
COc1ccc(NC(=O)C2=CC(c3ccc(OC)c(OC)c3)=NS(=O)(=O)N2C)cc1 [Example 11]	440 nM
COc1ccc(C2=NS(=O)(=O)N(C)C(C(=O)Nc3ccc(C)c(Cl)c3)=C2)cc1OC [Example 13]	340 nM
COc1ccc(C2=NS(=O)(=O)N(C)C(C(=O)Nc3ccc(C)cc3)=C2)cc1OC [Example 14]	1400 nM
COc1ccc(C2=NS(=O)(=O)N(C)C(C(=O)Nc3ccnc(C)c3)=C2)cc1OC [Example 15]	3000 nM
COc1ccc(C2=NS(=O)(=O)N(C)C(C(=O)Nc3cccc(C)n3)=C2)cc1OC [Example 16]	1400 nM
COc1ccc(C2=NS(=O)(=O)N(C)C(C(=O)Nc3ccc(C)cn3)=C2)cc1OC [Example 17]	2800 nM
COc1ccc(C2=NS(=O)(=O)N(C)C(C(=O)Nc3cc(C)ccn3)=C2)cc1OC [Example 18]	2900 nM
COc1ccc(C2=NS(=O)(=O)N(C)C(C(=O)Nc3cccc(F)c3)=C2)cc1OC [Example 19]	1600 nM
COc1ccc(C2=NS(=O)(=O)N(C)C(C(=O)Nc3cccc(Cl)c3)=C2)cc1OC [Example 20]	940 nM
Cc1cccc(NC(=O)C2=CC(c3ccc4c(cnn4C)c3)=NS(=O)(=O)N2C)c1 [Example 22]	370 nM
COc1ccc(C2=NS(=O)(=O)N(C)C(C(=O)Nc3cccc(C(F)(F)F)c3)=C2)cc1C [Example 23]	400 nM
COc1ccc(C2=NS(=O)(=O)N(C)C(C(=O)Nc3cc(Cl)ccc3OC)=C2)cc1Cl [Example 25]	1400 nM
COc1ccc(C2=NS(=O)(=O)N(C)C(C(=O)Nc3cccc(C(F)(F)F)c3)=C2)cc1Cl [Example 26]	360 nM

SMILES	EC50
COc1cc(C2=NS(=O)(=O)N(C)C(C(=O)Nc3cccc(C)c3)=C2)ccc1Cl [Example 28]	1200 nM
CCN1C(C(=O)Nc2ccc(C)c(Cl)c2)=CC(c2ccc(OC)c(OC)c2)=NS1(=O)=O [Example 30]	440 nM
CCN1C(C(=O)Nc2cccc(C(F)(F)F)c2)=CC(c2ccc(OC)c(OC)c2)=NS1(=O)=O [Example 31]	440 nM
CCN1C(C(=O)Nc2ccc(OC(F)(F)F)cc2)=CC(c2ccc(OC)c(OC)c2)=NS1(=O)=O [Example 32]	720 nM
CCN1C(C(=O)Nc2cccc(C(F)(F)F)c2)=CC(c2ccc(OC)c(C)c2)=NS1(=O)=O [Example 44]	360 nM
CCN1C(C(=O)Nc2cccc(Cl)c2)=CC(c2ccc(OC)c(C)c2)=NS1(=O)=O [Example 47]	500 nM
CCN1C(C(=O)Nc2cccc(C(F)(F)F)c2)=CC(c2ccc(C)c(OC)c2)=NS1(=O)=O [Example 49]	490 nM
CCN1C(C(=O)Nc2cccc(C(F)(F)F)c2)=CC([C@H]2CC[C@H](C(F)(F)F)CC2)=NS1(=O)=O [Example 50]	1100 nM
CCN1C(C(=O)Nc2cccc(C(F)(F)F)c2)=CC(C2CCC(F)(F)CC2)=NS1(=O)=O [Example 51]	810 nM
CCN1C(C(=O)Nc2cccc(C(F)(F)F)c2)=CC([C@H]2CC3C[C@@H]3C2)=NS1(=O)=O (stereo partly drawn) [Example 52]	1600 nM
CN1C(C(=O)Nc2cccc(C(F)(F)F)n2)=CC([C@H]2CC[C@H](C(F)(F)F)CC2)=NS1(=O)=O [Example 54]	480 nM
CN1C(C(=O)Nc2cccc(C(F)(F)F)n2)=CC(C2CCC(F)(F)CC2)=NS1(=O)=O [Example 55]	470 nM
CN1C(C(=O)Nc2cccc(F)n2)=CC(C2CCC(F)(F)CC2)=NS1(=O)=O [Example 56]	2500 nM
CCN1C(C(=O)Nc2cccc(C(F)(F)F)c2F)=CC([C@H]2CC[C@H](C(F)(F)F)CC2)=NS1(=O)=O [Example 57]	2000 nM
CCN1C(C(=O)Nc2cncc(C(F)(F)F)c2)=CC([C@H]2CC[C@H](C(F)(F)F)CC2)=NS1(=O)=O [Example 58]	1200 nM
CCN1C(C(=O)Nc2ccc(C(F)(F)F)cn2)=CC([C@H]2CC[C@H](C(F)(F)F)CC2)=NS1(=O)=O [Example 59]	1300 nM
CCN1C(C(=O)Nc2cc(Cl)ccn2)=CC([C@H]2CC[C@H](C(F)(F)F)CC2)=NS1(=O)=O [Example 62]	2800 nM
CCN1C(C(=O)Nc2ccnc(C(F)(F)F)n2)=CC([C@H]2CC[C@H](C(F)(F)F)CC2)=NS1(=O)=O [Example 64]	330 nM
CCN1C(C(=O)Nc2cccc(C(F)(F)F)n2)=CC([C@H]2CC[C@H](OC)CC2)=NS1(=O)=O [Example 65]	1100 nM
CCN1C(C(=O)Nc2cccc(C(F)(F)F)n2)=CC(C2CCCCCC2)=NS1(=O)=O [Example 66]	430 nM
CCN1C(C(=O)Nc2cncc(C(F)(F)F)n2)=CC(C2CCC(F)(F)CC2)=NS1(=O)=O [Example 69]	1100 nM

Results, then the compound that gave them:

EC50	SMILES
210 nM	CCc1cccc(NC(=O)C2=CC(c3ccc(OC)c(OC)c3)=NS(=O)(=O)N2C)c1 [Example 5]
230 nM	COc1ccc(C2=NS(=O)(=O)N(C)C(C(=O)Nc3cccc(C(F)(F)F)c3)=C2)cc1OC [Example 12]
210 nM	COc1ccc(C2=NS(=O)(=O)N(C)C(C(=O)Nc3cccc(C)c3)=C2)cc1C [Example 24]
110 nM	COc1ccc(C2=NS(=O)(=O)N(C)C(C(=O)Nc3cccc(C)c3)=C2)cc1Cl [Example 27]
130 nM	CCN1C(C(=O)Nc2ccc(C)c(C)c2)=CC(c2ccc(OC)c(OC)c2)=NS1(=O)=O [Example 34]
150 nM	CCN1C(C(=O)Nc2ccc(Cl)c(OC)c2)=CC(c2ccc(OC)c(OC)c2)=NS1(=O)=O [Example 35]
310 nM	CCN1C(C(=O)Nc2ccc(OC)c(Cl)c2)=CC(c2ccc(OC)c(OC)c2)=NS1(=O)=O [Example 36]
45 nM	CCN1C(C(=O)Nc2ccc(OC)cc2)=CC(c2ccc(OC)c(C(F)(F)F)c2)=NS1(=O)=O [Example 38]
150 nM	CCN1C(C(=O)Nc2cccc(C(F)(F)F)c2)=CC(c2ccc(OC)c(C(F)(F)F)c2)=NS1(=O)=O [Example 39]
60 nM	CCN1C(C(=O)Nc2cccc(C)c2)=CC(c2ccc(OC)c(C(F)(F)F)c2)=NS1(=O)=O [Example 40]
100 nM	CCN1C(C(=O)Nc2ccc(C)cc2)=CC(c2ccc(OC)c(C(F)(F)F)c2)=NS1(=O)=O [Example 41]
120 nM	CCN1C(C(=O)Nc2cccc(OC)c2)=CC(c2ccc(OC)c(C)c2)=NS1(=O)=O [Example 42]
110 nM	CCN1C(C(=O)Nc2ccc(OC)cc2)=CC(c2ccc(OC)c(C)c2)=NS1(=O)=O [Example 43]
210 nM	CCN1C(C(=O)Nc2cccc(C)c2)=CC(c2ccc(OC)c(C)c2)=NS1(=O)=O [Example 45]
170 nM	CCN1C(C(=O)Nc2ccc(C)cc2)=CC(c2ccc(OC)c(C)c2)=NS1(=O)=O [Example 46]
330 nM	CCN1C(C(=O)Nc2cccc(C(F)(F)F)c2)=CC(c2ccc(C(F)(F)F)c(OC)c2)=NS1(=O)=O [Example 48]
300 nM	CCN1C(C(=O)Nc2cncc(C(F)(F)F)n2)=CC([C@H]2CC[C@H](C(F)(F)F)CC2)=NS1(=O)=O [Example 60]
100 nM	CCN1C(C(=O)Nc2cccc(F)n2)=CC([C@H]2CC[C@H](C(F)(F)F)CC2)=NS1(=O)=O [Example 61]
190 nM	CCN1C(C(=O)Nc2cncc(F)n2)=CC([C@H]2CC[C@H](C(F)(F)F)CC2)=NS1(=O)=O [Example 63]
220 nM	CCN1C(C(=O)Nc2cccc(C(F)(F)F)n2)=CC([C@H]2CC[C@H](C)CC2)=NS1(=O)=O [Example 67]
140 nM	CCN1C(C(=O)Nc2cccc(C(F)(F)F)n2)=CC(C2CCC(F)(F)CC2)=NS1(=O)=O [Example 68]
